Source: patent US8629102B2, “3-hydroxyisothiazole 1-oxide derivatives” (Mochida Pharmaceutical Co., Ltd., priority 2011, dated 2014)
pEC50: −log10 of the molar value.

target: T1, GPR40 of human origin (Homo sapiens, UniProt O14842); experiment: Agonist action on GPR40 of human origin (intracellular Ca2+ change); type: cell-based; conditions: CHO cell strain stably expressing GPR40 of human origin; change in Ca2+ concentration, fluorescent calcium indicator
T1 construct: expressed in transfected cells
Procedure: Pharmacological Test Example 1: Agonist Action on GPR40 of Human Origin
A CHO cell strain stably expressing GPR40 of human origin was used to determine the agonist action of a subject compound. This cell strain was seeded in a clear bottom 96 well plate at 4×10^4 cells/100 pt/well. The cell strain iswas cultured in a CO2 incubator overnight using a Ham's F-12 medium containing a 10% fetal bovine serum, 100 U/mL penicillin, 0.1 mg/mL streptomycin, and 400 μg/mL Geneticin. Calcium 4 Assay Kit (Molecular Devices) was used as a fluorescent calcium indicator. One mL of 77 mg/mL probenecid (Invitrogen) was added to 100 mL of a calcium indicator solution to prepare a solution (loading solution) mixed with a 20 mM HEPES-containing Hanks' balanced salt solution (HBSS) in equal proportions. To the cells from which the culture solution is removed, 200 μl of the loading solution was added, and the cells were cultured in a CO2 incubator for 1 hour. The subject compound was diluted with a 20 mM HEPES-containing HBSS and was added to the cells by 50 μL, and the change in the Ca^2+ concentration was measured with an intracellular ion analyzer. The EC50 value of the subject compound was calculated using the dose-response curve of fluorescence intensity variation.

T1 sequence (O14842 whole entry): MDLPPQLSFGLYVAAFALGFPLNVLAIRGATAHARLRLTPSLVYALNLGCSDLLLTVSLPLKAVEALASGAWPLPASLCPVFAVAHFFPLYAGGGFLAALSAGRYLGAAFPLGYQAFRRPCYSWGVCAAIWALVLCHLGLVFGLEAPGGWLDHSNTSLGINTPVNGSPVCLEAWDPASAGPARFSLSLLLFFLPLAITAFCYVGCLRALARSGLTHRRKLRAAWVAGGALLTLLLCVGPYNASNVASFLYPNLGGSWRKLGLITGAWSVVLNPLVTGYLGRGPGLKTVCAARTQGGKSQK

SMILES | pEC50
CC(C)Oc1ccc(-c2cccc3c2CC[C@H]3Oc2ccc(-c3cc(O)n[s+]3[O-])cc2)cc1 (stereo partly drawn) [Example 31, 5-(4-(((R)-4-(4-isopropoxyphenyl)-2,3-dihydro-1H-inden-1-yl)oxy)phenyl)-3-hydroxyisothiazole 1-oxide] | 5.52 to 6.52
CCOc1cccc(-c2cccc3c2CC[C@H]3Oc2ccc(-c3cc(O)n[s+]3[O-])cc2)c1 (stereo partly drawn) [Example 32, 5-(4-(((R)-4-(3-ethoxyphenyl)-2,3-dihydro-1H-inden-1-yl)oxy)phenyl)-3-hydroxyisothiazole 1-oxide] | 5.52 to 6.52
CC(C)(C)c1ccc(-c2cccc3c2CC[C@H]3Oc2ccc(-c3cc(O)n[s+]3[O-])cc2)cc1 (stereo partly drawn) [Example 33, 5-(4-(((R)-4-(4-tert-butylphenyl)-2,3-dihydro-1H-inden-1-yl)oxy)phenyl)-3-hydroxyisothiazole 1-oxide] | 5.52 to 6.52
CC(C)c1ccccc1-c1cccc2c1CC[C@H]2Oc1ccc(-c2cc(O)n[s+]2[O-])cc1 (stereo partly drawn) [Example 34, 5-(4-(((R)-4-(2-isopropylphenyl)-2,3-dihydro-1H-inden-1-yl)oxy)phenyl)-3-hydroxyisothiazole 1-oxide] | 5.52 to 6.52
Cc1ccc(-c2cccc3c2CC[C@H]3Oc2ccc(-c3cc(O)n[s+]3[O-])cc2)c(C)c1 (stereo partly drawn) [Example 36, 5-(4-(((R)-4-(2,4-dimethylphenyl)-2,3-dihydro-1H-inden-1-yl)oxy)phenyl)-3-hydroxyisothiazole 1-oxide] | > 6.52
Cc1ccc(C)c(-c2cccc3c2CC[C@H]3Oc2ccc(-c3cc(O)n[s+]3[O-])cc2)c1 (stereo partly drawn) [Example 37, 5-(4-(((R)-4-(2,5-dimethylphenyl)-2,3-dihydro-1H-inden-1-yl)oxy)phenyl)-3-hydroxyisothiazole 1-oxide] | > 6.52
Cc1cc(-c2cccc3c2CC[C@H]3Oc2ccc(-c3cc(O)n[s+]3[O-])cc2)ccc1F (stereo partly drawn) [Example 38, 5-(4-(((R)-4-(4-fluoro-3-methylphenyl)-2,3-dihydro-1H-inden-1-yl)oxy)phenyl)-3-hydroxyisothiazole 1-oxide] | > 6.52
Cc1cc(F)ccc1-c1cccc2c1CC[C@H]2Oc1ccc(-c2cc(O)n[s+]2[O-])cc1 (stereo partly drawn) [Example 39, 5-(4-(((R)-4-(4-fluoro-2-methylphenyl)-2,3-dihydro-1H-inden-1-yl)oxy)phenyl)-3-hydroxyisothiazole 1-oxide] | > 6.52
COc1ccc(-c2cccc3c2CC[C@H]3Oc2ccc(-c3cc(O)n[s+]3[O-])cc2)c(C)c1 (stereo partly drawn) [Example 40, 5-(4-(((R)-4-(4-methoxy-2-methylphenyl)-2,3-dihydro-1H-inden-1-yl)oxy)phenyl)-3-hydroxyisothiazole 1-oxide] | > 6.52
Cc1ccc(F)cc1-c1cccc2c1CC[C@H]2Oc1ccc(-c2cc(O)n[s+]2[O-])cc1 (stereo partly drawn) [Example 41, 5-(4-(((R)-4-(5-fluoro-2-methylphenyl)-2,3-dihydro-1H-inden-1-yl)oxy)phenyl)-3-hydroxyisothiazole 1-oxide] | > 6.52
[O-][s+]1nc(O)cc1-c1ccc(O[C@@H]2CCc3c(-c4ccccc4OCc4ccccc4)cccc32)cc1 (stereo partly drawn) [Example 42, 5-(4-(((R)-4-(2-benzyloxyphenyl)-2,3-dihydro-1H-inden-1-yl)oxy)phenyl)-3-hydroxyisothiazole 1-oxide] | > 6.52
Cc1ccc(-c2cccc3c2CC[C@H]3Oc2ccc(-c3cc(O)n[s+]3[O-])cc2)c(Cl)c1 (stereo partly drawn) [Example 43, 5-(4-(((R)-4-(2-chloro-4-methylphenyl)-2,3-dihydro-1H-inden-1-yl)oxy)phenyl)-3-hydroxyisothiazole 1-oxide] | > 6.52
CCOc1ccc(-c2cccc3c2CC[C@H]3Oc2ccc(-c3cc(O)n[s+]3[O-])cc2)cc1F (stereo partly drawn) [Example 44, 5-(4-(((R)-4-(4-ethoxy-3-fluorophenyl)-2,3-dihydro-1H-inden-1-yl)oxy)phenyl)-3-hydroxyisothiazole 1-oxide] | 5.52 to 6.52
COc1ccc(C)cc1-c1cccc2c1CC[C@H]2Oc1ccc(-c2cc(O)n[s+]2[O-])cc1 (stereo partly drawn) [Example 45, 5-(4-(((R)-4-(2-methoxy-5-methylphenyl)-2,3-dihydro-1H-inden-1-yl)oxy)phenyl)-3-hydroxyisothiazole 1-oxide] | > 6.52
[O-][s+]1nc(O)cc1-c1ccc(O[C@@H]2CCc3c(-c4cc(F)ccc4F)cccc32)cc1 (stereo partly drawn) [Example 46, 5-(4-(((R)-4-(2,5-difluorophenyl)-2,3-dihydro-1H-inden-1-yl)oxy)phenyl)-3-hydroxyisothiazole 1-oxide] | > 6.52
Cc1cc(OCc2ccccc2)ccc1-c1cccc2c1CC[C@H]2Oc1ccc(-c2cc(O)n[s+]2[O-])cc1 (stereo partly drawn) [Example 47, 5-(4-(((R)-4-(4-benzyloxy-2-methylphenyl)-2,3-dihydro-1H-inden-1-yl)oxy)phenyl)-3-hydroxyisothiazole 1-oxide] | > 6.52

SMILES | pEC50
COc1ccc(-c2cccc3c2CC[C@H]3Oc2ccc(-c3cc(O)n[s+]3[O-])cc2)c(Cl)c1 (stereo partly drawn) [Example 48, 5-(4-(((R)-4-(2-chloro-4-methoxyphenyl)-2,3-dihydro-1H-inden-1-yl)oxy)phenyl)-3-hydroxyisothiazole 1-oxide] | > 6.52
COc1ccc(-c2cccc3c2CC[C@H]3Oc2ccc(-c3cc(O)n[s+]3[O-])cc2)c(OC)c1 (stereo partly drawn) [Example 49, 5-(4-(((R)-4-(2,4-dimethoxyphenyl)-2,3-dihydro-1H-inden-1-yl)oxy)phenyl)-3-hydroxyisothiazole 1-oxide] | > 6.52
Cc1ccc(-c2cccc3c2CC[C@H]3Oc2ccc(-c3cc(O)n[s+]3[O-])cc2)c2ccccc12 (stereo partly drawn) [Example 50, 5-(4-(((R)-4-(4-methylnaphthalen-1-yl)-2,3-dihydro-1H-inden-1-yl)oxy)phenyl)-3-hydroxyisothiazole 1-oxide] | 5.52 to 6.52
COc1cc(F)ccc1-c1cccc2c1CC[C@H]2Oc1ccc(-c2cc(O)n[s+]2[O-])cc1 (stereo partly drawn) [Example 51, 5-(4-(((R)-4-(4-fluoro-2-methoxyphenyl)-2,3-dihydro-1H-inden-1-yl)oxy)phenyl)-3-hydroxyisothiazole 1-oxide] | > 6.52
COc1ccc(Cl)c(-c2cccc3c2CC[C@H]3Oc2ccc(-c3cc(O)n[s+]3[O-])cc2)c1 (stereo partly drawn) [Example 52, 5-(4-(((R)-4-(2-chloro-5-methoxyphenyl)-2,3-dihydro-1H-inden-1-yl)oxy)phenyl)-3-hydroxyisothiazole 1-oxide] | > 6.52
COc1ccc(F)c(-c2cccc3c2CC[C@H]3Oc2ccc(-c3cc(O)n[s+]3[O-])cc2)c1 (stereo partly drawn) [Example 53, 5-(4-(((R)-4-(2-fluoro-5-methoxyphenyl)-2,3-dihydro-1H-inden-1-yl)oxy)phenyl)-3-hydroxyisothiazole 1-oxide] | > 6.52
COc1ccc(OC)c(-c2cccc3c2CC[C@H]3Oc2ccc(-c3cc(O)n[s+]3[O-])cc2)c1 (stereo partly drawn) [Example 54, 5-(4-(((R)-4-(2,5-dimethoxyphenyl)-2,3-dihydro-1H-inden-1-yl)oxy)phenyl)-3-hydroxyisothiazole 1-oxide] | > 6.52
COc1ccc(Cl)cc1-c1cccc2c1CC[C@H]2Oc1ccc(-c2cc(O)n[s+]2[O-])cc1 (stereo partly drawn) [Example 55, 5-(4-(((R)-4-(5-chloro-2-methoxyphenyl)-2,3-dihydro-1H-inden-1-yl)oxy)phenyl)-3-hydroxyisothiazole 1-oxide] | 5.52 to 6.52
COc1ccc(F)cc1-c1cccc2c1CC[C@H]2Oc1ccc(-c2cc(O)n[s+]2[O-])cc1 (stereo partly drawn) [Example 56, 5-(4-(((R)-4-(5-fluoro-2-methoxyphenyl)-2,3-dihydro-1H-inden-1-yl)oxy)phenyl)-3-hydroxyisothiazole 1-oxide] | > 6.52
[O-][s+]1nc(O)cc1-c1ccc(O[C@@H]2CCc3c(-c4ccc(OCc5ccccc5)c(F)c4)cccc32)cc1 (stereo partly drawn) [Example 57, 5-(4-(((R)-4-(4-benzyloxy-3-fluorophenyl)-2,3-dihydro-1H-inden-1-yl)oxy)phenyl)-3-hydroxyisothiazole 1-oxide] | 5.52 to 6.52
CCOc1ccc(Cl)cc1-c1cccc2c1CC[C@H]2Oc1ccc(-c2cc(O)n[s+]2[O-])cc1 (stereo partly drawn) [Example 58, 5-(4-(((R)-4-(5-chloro-2-ethoxyphenyl)-2,3-dihydro-1H-inden-1-yl)oxy)phenyl)-3-hydroxyisothiazole 1-oxide] | > 6.52
COc1cccc(-c2cccc3c2CC[C@H]3Oc2ccc(-c3cc(O)n[s+]3[O-])cc2)c1F (stereo partly drawn) [Example 59, 5-(4-(((R)-4-(2-fluoro-3-methoxyphenyl)-2,3-dihydro-1H-inden-1-yl)oxy)phenyl)-3-hydroxyisothiazole 1-oxide] | > 6.52
CCOc1ccc(-c2cccc3c2CC[C@H]3Oc2ccc(-c3cc(O)n[s+]3[O-])cc2)cc1Cl (stereo partly drawn) [Example 60, 5-(4-(((R)-4-(3-chloro-4-ethoxyphenyl)-2,3-dihydro-1H-inden-1-yl)oxy)phenyl)-3-hydroxyisothiazole 1-oxide] | > 6.52
[O-][s+]1nc(O)cc1-c1ccc(O[C@@H]2CCc3c(-c4ccc(F)cc4OCc4ccccc4)cccc32)cc1 (stereo partly drawn) [Example 61, 5-(4-(((R)-4-(2-benzyloxy-4-fluorophenyl)-2,3-dihydro-1H-inden-1-yl)oxy)phenyl)-3-hydroxyisothiazole 1-oxide] | 5.52 to 6.52
[O-][s+]1nc(O)cc1-c1ccc(O[C@@H]2CCc3c(-c4cc(F)ccc4OCc4ccccc4)cccc32)cc1 (stereo partly drawn) [Example 62, 5-(4-(((R)-4-(2-benzyloxy-5-fluorophenyl)-2,3-dihydro-1H-inden-1-yl)oxy)phenyl)-3-hydroxyisothiazole 1-oxide] | 5.52 to 6.52
